System: MTX-naïve adult patients with active, early RA (<3 years)
Test: Study J: radiographic progression (TSS, joint erosion, joint space narrowing)
Format: in vivo, human
Design: key to mean change from baseline in TSS / Mean change in TSS / TSS after 2 years / change in TSS over 2 years / mean change in TSS from baseline / Mean ΔTSS at 1 year / Mean ΔTSS Yr 1-Yr 2: modified total Sharp score, 0-398 scale
Conditions: for Annualized rate of radiographic progression (ΔTSS): all pts in treatment arm
From the text: The co-primary endpoints, comparing MTX alone with the combination at 1 year, were the ACR50 response (using non-responder imputation), and inhibition of radiographic progression, as measured by change in total Sharp score (TSS). In this study, the term “Major Clinical Response” (MCR) meant a continuous ACR70 response for 6 or more consecutive months.
At 1 and 2 years, the American College of Rheumatology (ACR) responses (ACR20, ACR50, and ACR70), the Disease Activity Score 28 (DAS28), and the change (Δ) in Total Sharp Score (TSS) were determined for all patients. Results were analyzed for the intention-to-treat (ITT) population using imputation for missing data. Clinical remission was defined as DAS28<2.6. The mean ΔTSS values at 1 year and 2 years (N=791) were determined for patients in each ACR response category (ACR20/50/70) and for patients with DAS28<2.6
Radiographic progression was measured by Total Sharp Score (TSS) at baseline, and 1 and 2 years in the intention to treat population (ITT) using imputation for missing data. In this analysis, patients were divided into 1 of 2 categories by disease duration at baseline: <6 months (Group 1) or 6 months to 3 years (Group 2). Mean changes in TSS were reported for both groups by each of the 3 treatment arms from baseline to Year 1 and from Year 1 to Year 2.
Radiographic progression was assessed by mean change from baseline in Total Sharp Score (TSS) and stratified into those with (ΔTSS>0.5) and without (Δ≦TSS 0.5). Patients were categorized as either having radiographic progression at 1 year (ΔTSS>0.5) or not (Δ≦TSS 0.5). A logistic regression model was used to identify predictors of radiographic disease progression by testing several baseline characteristics, including age, disease duration, RF status, TJC, SJC, joint erosions, and CRP. For analyses of CRP, patients were categorized as normal (CRP≦0.8 mg/dL) or abnormal (CRP>0.8 mg/dL).
Mean change from baseline in Total Sharp Score (TSS) was measured at 6 months, 1 year, and 2 years in the intention-to-treat (ITT) population using imputation for missing data. Patients were classified as having radiographic progression (mean change in TSS>0.5) or without radiographic progression (ΔTSS≦0.5). Patients with inadequate data were excluded from this analysis.
Patients in the Ada+MTX and the MTX arms were classified according to level of clinical response (non-responder (<ACR20), ACR20, ACR50, or ACR70) and radiographic progression (Yes or No (ΔTSS≦0.5)). The ΔTSS was analyzed overall, and for ACR subgroups. This included determination of mean ΔTSS and probability plots.
Study J was a 2-year, double-blind, active comparator-controlled, Phase III study. […] For each patient, radiographs of hands and feet were taken at baseline, 6 months, 1 year and 2 years and evaluated for joint erosions (JE) and joint space narrowing (JSN) by 2 blinded radiologists. Changes from baseline in the modified total Sharp score (TSS, 0-398) were calculated for patients in each treatment arm. Cumulative probability plots were generated by estimating the probability of exceeding a given change in TSS. For each treatment, we calculated the percentages of patients whose ΔTSS exceeded specified thresholds, and the probability of having a given ΔTSS (using cumulative probability plots). For each of 4 cumulative probability ranges, 0-10%, 10-50%, 50-90% and 90-100% (higher numbered ranges=greater ΔTSS), mean ΔTSS values were calculated. In previous reports, Study J radiographic analyses employed linear imputation. In the present analysis, only observed data were employed, with no imputation.

[1] = Group 1, BL disease duration <6 mos (n=448)
[2] = Group 2, BL disease duration 6 mos to 3 yrs (n=333)
[3] = disease duration 6 months to 3 years
[4] = disease duration 6 months-3 years (n=333)

## CN(Cc1cnc2nc(N)nc(N)c2n1)c1ccc(C(=O)N[C@@H](CCC(=O)O)C(=O)O)cc1 [mtx alone, methotrexate]
0-6 mos
  Annualized rate of radiographic progression (ΔTSS): 7.0 Sharp Score Units per Year
1-2 yrs
  Annualized rate of radiographic progression (ΔTSS): 4.7 Sharp Score Units per Year
1 year
  patients with ΔTSS≦0.5 among those achieving DAS28 remission: 47%
1 year, ACR20 responders
  Mean change in TSS: 3.9
  mean change in JE score: 2.0
  mean change in JSN: 1.4
1 year, ACR50 responders
  Mean change in TSS: 3.2
  mean change in JE score: 2.2
  mean change in JSN: 1.0
1 year, ACR70 responders
  Mean change in TSS: 2.7
  mean change in JE score: 1.6
  mean change in JSN: 1.1
1 year, abnormal baseline CRP normalized at 1 year
  patients with no radiographic progression: 33%
1 year, elevated CRP at both baseline and 1 year
  patients with no radiographic progression: 31%
1 year, patients with CRP and X-rays available
  patients with no disease progression (ΔTSS≦0.5): 38%
1 year, patients with DAS28<2.6
  Mean change in TSS: 1.9
1 year, patients with DAS28<2.6, listed as MTX alone
  Mean change in TSS: 2.8
2 years
  % of patients with >4 change TSS: 41.3%
  % of patients with >10 change TSS: 23.3%
  % of patients with >20 change TSS: 7%
  patients with no radiographic progression (change in TSS ≦0.5): 34%
  patients with ΔTSS≦0.5 among those achieving DAS28 remission: 47%
2 years, ACR20 responders
  Mean change TSS in radiographic progressors (ΔTSS > 0.5): 9.4
  mean change in JE score: 3.6
  mean change in JSN: 2.3
  mean change in TSS from baseline: 5.5
2 years, ACR20 responders, listed as MTX alone
  mean change in TSS from baseline: 5.8
2 years, ACR50 responders
  Mean change TSS in radiographic progressors (ΔTSS > 0.5): 8.5
  mean change in JE score: 3.0
  mean change in JSN: 1.8
  mean change in TSS from baseline: 4.9
2 years, ACR70 responders
  Mean change TSS in radiographic progressors (ΔTSS > 0.5): 7.5
  mean change in JE score: 2.6
  mean change in JSN: 1.4
  mean change in TSS from baseline: 4.1
2 years, patients with DAS28<2.6
  Mean change in TSS: 2.8
2 years, patients with DAS28<2.6, listed as MTX alone
  Mean change in TSS: 1.9
2 years, ACR20 responders, observed data
  Frequency of radiographic progression (ΔTSS > 0.5), % of patients: 62%
2 years, ACR50 responders, observed data
  Frequency of radiographic progression (ΔTSS > 0.5), % of patients: 60%
2 years, ACR70 responders, observed data
  Frequency of radiographic progression (ΔTSS > 0.5), % of patients: 57%
2 years, Non-responder (<ACR20)
  Mean change TSS in radiographic progressors (ΔTSS > 0.5): 15.5
2 years, Non-responder (<ACR20), observed data
  Frequency of radiographic progression (ΔTSS > 0.5), % of patients: 75%
2 years, all points (0-100), observed data
  Mean change in TSS: 6.4
2 years, cumulative probability range 0-10
  Mean change in TSS: −3.9
2 years, cumulative probability range 10-50
  Mean change in TSS: 0.5
2 years, cumulative probability range 50-90
  Mean change in TSS: 7.6
2 years, cumulative probability range 90-100
  Mean change in TSS: 31.4
6 months
  % of patients with >4 change TSS: 0%
  % of patients with >10 change TSS: 1.7%
  % of patients with >20 change TSS: 2.3%
  patients with no radiographic progression: 51%
6 months, ACR20 responders
  Mean change TSS in radiographic progressors (ΔTSS > 0.5): 4.8
6 months, ACR20 responders, observed data
  Frequency of radiographic progression (ΔTSS > 0.5), % of patients: 55%
6 months, ACR50 responders
  Mean change TSS in radiographic progressors (ΔTSS > 0.5): 3.8
6 months, ACR50 responders, observed data
  Frequency of radiographic progression (ΔTSS > 0.5), % of patients: 51%
6 months, ACR70 responders
  Mean change TSS in radiographic progressors (ΔTSS > 0.5): 3.4
6 months, ACR70 responders, observed data
  Frequency of radiographic progression (ΔTSS > 0.5), % of patients: 49%
6 months, Non-responder (<ACR20)
  Mean change TSS in radiographic progressors (ΔTSS > 0.5): 10.8
6 months, Non-responder (<ACR20), observed data
  Frequency of radiographic progression (ΔTSS > 0.5), % of patients: 59%
6 months, all points (0-100), observed data
  Mean change in TSS: 3.4
6 months, cumulative probability range 0-10
  Mean change in TSS: −2.0
6 months, cumulative probability range 10-50
  Mean change in TSS: 0.2
6 months, cumulative probability range 50-90
  Mean change in TSS: 4.4
6 months, cumulative probability range 90-100
  Mean change in TSS: 16.5
6 mos-1 yr
  Annualized rate of radiographic progression (ΔTSS): 4.4 Sharp Score Units per Year
26 weeks, observed data
  Mean change in TSS: 3.4
52 weeks, observed data
  Mean change in TSS: 5.2
104 weeks, observed data
  Mean change in TSS: 6.4
CRP (BL and Year 1) Abnormal to Normal
  Patients with No Radiographic Progression at 1 Year: 33%
CRP (BL and Year 1) Always Normal
  Patients with No Radiographic Progression at 1 Year: 86%
CRP (BL and Year 1) Never Normal
  Patients with No Radiographic Progression at 1 Year: 31%
[1]
  Mean ΔTSS Yr 1-Yr 2: 5.8
  Mean ΔTSS at 1 year: 7.4
[2]
  Mean ΔTSS Yr 1-Yr 2: 3.4
  Mean ΔTSS at 1 year: 3.8
Study J
  No Progression at Month 6, %: 51%
  No Progression at Month 6, patients/total: 129/252
  No Progression at Month 6 and Year 2, %: 61%
  No Progression at Month 6 and Year 2, patients/Month-6 non-progressors: 79/129
Among Mo-6 Non-Progressors
  Yr-2 Non-P, %: 61%
  Yr-2 Non-P, number of patients: 79
  Yr-2 Prog, %: 39%
  Yr-2 Prog, number of patients: 50
Among Mo-6 Progressors
  Yr-2 Non-P, %: 6%
  Yr-2 Non-P, number of patients: 7
  Yr-2 Prog, %: 94%
  Yr-2 Prog, number of patients: 116
[3]
  TSS after 2 years: 32.2
  change in TSS over 2 years: 7.2
[4]
  mean change TSS during year 1: 3.8 sharp score units
  mean change TSS during year 2: 3.4 sharp score units
Disease duration <6 months
  TSS after 2 years: 32.4
  change in TSS over 2 years: 13.2
  mean change TSS during year 1: 7.4 sharp score units
  mean change TSS during year 2: 5.8 sharp score units
In vivo
  rate of change in TSS in ACR20 responders, relative to combination therapy: 7 times
No progression = ΔTSS≦0.5
  Mo-6 Non-Progressors, % of arm: 51%
  Mo-6 Non-Progressors, number of patients: 129
No progression at month 6
  patients with no progression at year 2: 61%
Progression = ΔTSS>0.5
  Mo-6 Progressors, % of arm: 49%
  Mo-6 Progressors, number of patients: 123
Progression at month 6
  patients with no progression at year 2: 6%
Week 26, ITT with imputation
  mean change from baseline in TSS: 3.5
Week 52 (1 year), ITT with imputation
  mean change from baseline in TSS: 5.7
Week 104 (2 years), ITT with imputation
  mean change from baseline in TSS: 10.4

— patent publication US20120171123A1, “USES AND COMPOSITIONS FOR TREATMENT OF RHEUMATOID ARTHRITIS” (priority 2006, published 2012)
